Measurements published in PubChem BioAssay AID179 (DTP/NCI, 2004).
Values joined by “and” are separate entries in the source; they are usually repeats but may differ in a detail not shown here. Identical values can stand only once. Active and inactive are the calls of the source.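 Rule for the calls: active = compounds giving half or more protection of infected cells from virus-caused growth loss, again on retest; inactive = the rest.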 Where a SMILES comes first, the peptide text is derived from it. The star is where a group is joined. Myristoyl = CCCCCCCCCCCCCC(=O)*

System: CEM cells HIV-1 protection, formazan growth assay
Experiment: NCI AIDS Antiviral Assay
Settings: for IC50: measured here: growth of uninfected CEM cells
Procedure, shortened: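 Category rules: moderately active means at least 50% protection on retest, and confirmed active means 100% protection reproducibly. The underlying data came from a formazan growth assay in HIV-1-infected CEM cells.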

Compound | EC50 | IC50 | outcome
COc1ccc(-c2c(C#N)c(S)n(C3OC(CO)C(O)C(O)C3O)c(=O)c2C#N)cc1 (configuration not stated) | > 200 µM | 195 µM and > 200 µM | 
OC12OC3(c4ccc(C(F)(F)F)cc4)C4C5CC(C6C5C3C61)C42 (configuration not stated) |  |  | inactive
Cc1cccnc1CC(O)c1ccccc1 (configuration not stated) | > 200 µM | 107 µM | 
Nc1nc(SCCc2ccccc2)nc2nc3c(c(-c4ccccc4)c12)CCCC3 | > 200 µM | > 200 µM | 
COc1ccc(CN2CCCN(Cc3ccc(OC)cc3OC)C2c2cc(Cl)cc(Cl)c2O)c(OC)c1 | > 200 µM | 34.7 µM | 
C#CCOCn1ccc(=O)[nH]c1=O | > 200 µM | > 200 µM | 
Cc1cccc(C)c1NC(=S)/N=C\c1c(O)[nH]c(=O)[nH]c1=O | > 200 µM | > 200 µM | 
O=C(/C=C/c1ccc(O)c(O)c1)c1cc(O)cc(O)c1 | > 200 µM | 15.1 µM | 
C=C(C)[C@@]1(O)CCCC[C@@H]1CC(Sc1ccccc1)Sc1ccccc1 | > 200 µM | 19.1 µM | 
Cc1ccc2c(c1)CN1c3ccc(C)cc3CN2C1c1ccccc1O |  |  | inactive
O=c1c2ncn(C3CC(O)C(CO)O3)c2nnn1Cc1ccccc1[N+](=O)[O-] (configuration not stated) | > 200 µM | > 200 µM | 
CCN=C(CC(=O)C12CC3CC(CC(C3)C1)C2)N(CC)CC |  |  | inactive
COc1cc(OC)c(C(=O)CC(=O)c2cc(OC)c(OC)c(OC)c2OC)cc1OC | > 575 µM | 479 µM | 
CCOC(=O)c1nc(SC)sc1NC(=O)c1ccccc1Cl | > 200 µM | 9.55 µM | 
O=c1[nH]c(=O)n([C@H]2CCCO2)cc1F | > 631 µM | 102 µM | 
C/C(=N\N=C(/[O-])c1ccccc1)c1cccc(/C(C)=N/N=C(\[O-])c2ccccc2)n1.O.[Cu+2] | > 100 µM | 18.2 µM | 
O=C1Sc2cc([N+](=O)[O-])ccc2C(=O)N2CSCC12 (configuration not stated) | > 50.1 µM | > 50.1 µM | 
C=C(Br)C[N+](CC)(CC)CC | > 200 µM | > 200 µM | 
CCN(CC)C(=O)N[C@@H](CC(C)C)C(=O)NC | > 200 µM | > 200 µM | 
CC(=O)c1ccc(NC(=O)CSc2nc(C)nc3c2sc(=S)n3-c2ccccc2)cc1 | > 200 µM | > 200 µM | 
CCN1C2=NCCN2S(=O)(=O)c2ccccc21 | > 1000 µM | 479 µM | 
CCOc1ccccc1N1C(=O)C(=O)C(c2nc3ccccc3o2)C(=O)C1=O |  |  | inactive

Compound | EC50 | IC50 | outcome
O=c1nc2n(c3ncccc13)CC=NN2 | > 200 µM | > 200 µM | 
CCN1c2cc(Br)cc3[nH]c(=S)n(c23)CCC1C (configuration not stated) | 3.72 µM | 112 µM | 
CN1C2CCC1CC(O)C2 (configuration not stated) | > 1780 µM | > 1780 µM | 
CCCCCCC[CH2][Sn]([Cl])([Cl])[CH2]CCCCCCC |  |  | inactive
NC1CC(=O)c2c1sc(Cl)c2Cl (configuration not stated) |  |  | inactive
C=CC[N+](CC)(CC)Cc1ccc(C[N+](CC)(CC)CC=C)cc1 | > 513 µM | > 513 µM | 
Cn1c(=Nc2ccccc2[N+](=O)[O-])sc2ccccc21 | > 200 µM | > 100 µM | 
N=C(N)SCCC(=O)CCSC(=N)N | > 85.1 µM | 63.1 µM | 
CCOC(=O)c1nc2cc(N3CCOCC3)c(F)cc2[nH]c1=O | > 200 µM | 141 µM | 
CN/N=C(\C)C(CN1CCCCC1)C(C1=C(O)c2ccccc2OC1)c1ccccc1 (configuration not stated) | > 29.5 µM | > 29.5 µM | 
O=S(O)CCCSSCCCCSSCCCS(=O)O |  |  | inactive
O=C(Nc1ccc([N+](=O)[O-])cc1)OCC(COc1ccccc1)OC(=O)Nc1ccc([N+](=O)[O-])cc1 (configuration not stated) | > 200 µM | 7.76 µM | 
COc1ccc(-c2c(N)cnc(C(=O)O)c2C)c(O)c1OC |  |  | inactive
O=C1C2Nc3ccccc3SC2C(=O)N1c1cccc([N+](=O)[O-])c1 (configuration not stated) | > 55 µM | > 55 µM | 
CCOc1ccc(N=NC2C(=O)N(C(=O)CC(=O)Nc3ccccc3OC)N=C2C)cc1 (configuration not stated) | > 200 µM | 7.24 µM | 
O=S1(=O)C2C=CCC1C(c1ccccc1)CC2 (configuration not stated) | > 1000 µM | > 1000 µM | 
COc1cc(C(=O)Oc2c(C(C)=O)sc3c2c(=O)n(-c2ccccc2)c(=S)n3-c2ccccc2)cc(OC)c1OC | > 200 µM | 1.1 µM | 
COc1ccc(C2S/C(=C\c3cccc(OC)c3)C(=O)N2NC(=O)Cc2ccccc2)cc1 (configuration not stated) | > 107 µM | > 107 µM | 
O=C1Nc2c(ccc(Cl)c2I)C1=O | > 162 µM | 30.9 µM | 
CCCCCCNC(=O)CNC(=O)c1ccccc1SC(=O)CCCC[n+]1ccccc1 | > 200 µM | 34.7 µM | 
CC(C)(C)OC(=O)[C@H]1CCC(=S)N1Cc1ccccc1 | > 200 µM | > 200 µM | 
Clc1ccc2c(SCC3CO3)c3ccccc3nc2c1 (configuration not stated) | > 200 µM | 2.57 µM | 

Compound | EC50 | IC50 | outcome
COc1ccc(/C=N/N2C(=O)c3c(N)c(C#N)c(-c4ccccc4)c(-c4ccccc4)c3C2=O)cc1 | > 100 µM | > 100 µM | 
CCN(CC)CCCNc1cnnc2cc(Cl)ccc12 | > 363 µM | 83.2 µM | 
CCOC(=O)Cn1nc2oc(=O)c(CCN3CCN(c4ccccc4OC)CC3)c(C)c2c1C | > 200 µM | > 200 µM | 
COc1ccc(NC(=O)c2c(N)c(C#N)c3n2CCC3)cc1 | > 200 µM | > 200 µM | 
COc1ccc2nc3cc(Cl)ccc3c(NCCCN(Cc3cc(OC)c(OC)c(OC)c3)Cc3cc(OC)c(OC)c(OC)c3)c2c1 |  |  | inactive
CCCCCCCCCC=C(c1cc(Cl)c(O)c(C(=O)O)c1)c1cc(Cl)c(O)c(C(=O)O)c1 | 45.7 µM | 49 µM | 
CCSSC12CCCN1C(=O)C1CCCN1C2=O (configuration not stated) | > 200 µM | 15.8 µM | 
CC(C)OC1CC(C)(C)c2c(-c3ccccc3)nn(-c3ccccc3)c2O1 (configuration not stated) | > 61.7 µM | 38 µM | 
CCOC(=O)/C(=C\c1ccccc1)C(=O)O | > 1120 µM | 240 µM | 
CC(CN1CCCCC1)SSC(C)CN1CCCCC1 (configuration not stated) | > 200 µM | 24 µM | 
CCOC(=O)C1=C(O)CC(=O)N=C1N1CCCC1 | > 200 µM | > 200 µM | 
Cc1ccc(/C=C2\CN(C)CC3=C2OC(N)=C(C#N)C3c2ccc(C)cc2)cc1 (configuration not stated) | > 200 µM | 10.2 µM | 
CCOC(=O)CCC(NC(=O)c1ccc(Nc2nc3ccccc3nc2C(=O)OCC)cc1)C(=O)OCC (configuration not stated) | > 138 µM | 85.1 µM | 
CC1=CC(S)NC(=S)N1 (configuration not stated) | > 200 µM | > 200 µM | 
CCCCCCCCOC(CO)CO | > 251 µM | > 251 µM | 
CCOC(=O)Nc1cc(Nc2ccc(Cl)cc2)c2nc(-c3ccc(Cl)cc3)c(-c3ccc(Cl)cc3)nc2n1 | > 37.2 µM | > 37.2 µM | 
CC1(C)CC(=O)C(=[N+]=[N-])C(=O)C1 | > 200 µM | > 200 µM | 
COc1cc(OC)c2c(O)c(S(=O)(=O)c3ccc(C)cc3)c(=O)oc2c1 | > 200 µM | > 200 µM | 
CCN(CC)CC[NH-].O=C([O-])C(=O)[O-].O=C([O-])C(=O)[O-].[Co+3].[K+] | > 200 µM | 148 µM | 
CCOC(=O)Cn1c2ccc(Br)cc2c2nc3ccccc3nc21 | > 100 µM | > 100 µM | 
Cc1cc(Br)ccc1Nc1nc(N)nc(N)c1N=O | > 200 µM | 51.3 µM | 
Cc1cc2c(c(=O)n1C)COC2=O |  |  | inactive

Compound | EC50 | IC50 | outcome
Cc1cccc(Nc2cn(CCOc3ccccc3)c(=O)n(CCOc3ccccc3)c2=O)c1 | > 200 µM | > 200 µM | 
CCOC(=O)c1ccc(CSc2ccccc2C(=O)OCC)cc1 | > 3.02 µM | > 3.02 µM | 
CC(=O)c1c(O)c2ccc(Cl)cc2[nH]c1=O | > 200 µM | 33.9 µM | 
CCC(Sc1cc(Cl)c(C)cc1S(=O)(=O)Nc1nc(N)nc(N(C)C)n1)C(=O)O (configuration not stated) |  |  | inactive
O=C1O/C(=C(\Br)c2cccc3ccccc23)c2ccccc21 | > 7.76 µM | > 7.76 µM | 
CC1=NC2(CCCCC2)N(Cl)C(=O)C1SC#N (configuration not stated) | > 200 µM | 17.8 µM | 
CC(C)C1CC=CC2[C@H]3C(C)(CC[C@]12CBr)C(Br)CC[C@@]3(C)O (some centres not stated) |  |  | inactive
ClC1CCC2OOC1O2 (configuration not stated) |  |  | inactive
CCCCCCCCCCCCCCCCP(=O)(O)OP(=O)(O)OCC1OC(n2ccc(N)nc2=O)C(O)C1O (configuration not stated) | > 200 µM |  | 
COc1cc(Oc2c(O)c(C)c(OC)c(C(C)=O)c2O)c(C(C)=O)c(O)c1C | > 93.3 µM | > 93.3 µM | 
C/C(=C\c1ccc(F)cc1)C(=O)O | > 275 µM | > 275 µM | 
COc1cc(NS(C)(=O)=O)ccc1NCc1c2ccccc2nc2ccccc12 |  |  | inactive
CC1=NNC(=S)NCCCN2CCN(CCCNC(=S)NN=C(C)C=NNC(=S)NCCCN3CCN(CCCNC(=S)NN=C1)CC3)CC2 | > 123 µM | > 123 µM | 
CCCCCCCCCCCCCC(=O)NCC(=O)NC(C)C(=O)NC(CCCNC(=N)N)C(=O)NC(C)C(=O)NC(CO)C(=O)NC(C(=O)NC(CC(C)C)C(=O)NC(CO)C(=O)NCC(=O)NCC(=O)NC(CCC(=O)O)C(=O)NC(CC(C)C)C(=O)NC(CC(=O)O)C(=O)NC(CCCNC(=N)N)C(=O)NC(Cc1c[nH]c2ccccc12)C(=O)NC(Cc1ccc(O)cc1)C(N)=O)C(C)C (configuration not stated) (Myristoyl-GARASVLSGGELDRWY-NH2; configuration not given here) | > 129 µM | > 129 µM | 
C#CCOCn1cnc2c(=S)nc[nH]c21 | > 9.12 µM | > 9.12 µM | 
O=C(O)CCc1coc2ccc(O)cc12 |  |  | inactive
CCN=C(NNc1ccc([N+](=O)[O-])cc1)P(=O)(OC(C)C)OC(C)C | > 36.3 µM | > 36.3 µM | 
CCOC(=O)[C@H](C)OC(=O)[C@@](C)(NC(=O)c1ccccc1C(=O)OC)[C@@H]1NC=C(C(=O)OC)CS1 | > 200 µM | 53.7 µM | 
Cc1ccc(NC(=O)/C(CC(=O)c2sc(Nc3ccc(Cl)c(Cl)c3)nc2C)=N\Nc2ccc([N+](=O)[O-])cc2[N+](=O)[O-])c(C)c1 | > 200 µM | 25.1 µM | 
O=C1[C@@H]2C(c3ccc(Cl)cc3Cl)=NO[C@@H]2C(=O)N1c1ccc(Cc2ccc(N3C(=O)[C@H]4C(c5ccc(Cl)cc5Cl)=NO[C@H]4C3=O)cc2)cc1 | > 7.08 µM | > 7.08 µM | 
CCCCC[C@@H]1CC=CC(NC(=O)OCc2ccccc2)C1/C=C/C(=O)OCCCC1OCCO1 (some centres not stated) |  |  | inactive
